What follows are compounds tested against T1, PI3Kδ (Homo sapiens, UniProt O00329) (assay: PI3Kδ Alphascreen assay). Conditions: not given.
T1 construct: Full length p110 subunits of PI3k α, β and δ, N-terminally labeled with polyHis tag; polyHis (N); made in house; host or cells: Sf9 insect cells (baculovirus)
Type: biochemical
Description: Full length p110 subunits of PI3k α, β and δ, N-terminally labeled with polyHis tag, were coexpressed with p85 with Baculo virus expression vectors in sf9 insect cells. P110/p85 heterodimers were purified by sequential Ni-NTA, Q-HP, Superdex-100 chromatography. Purified α, β and δ isozymes were stored at −20° C. in 20 mM Tris, pH 8, 0.2M NaCl, 50% glycerol, 5 mM DTT, 2 mM Na cholate. […] The γ isozyme was purified by sequential Ni-NTA, Superdex-200, Q-HP chromatography. The γ isozyme was stored frozen at −80° C. in NaH2PO4, pH 8, 0.2M NaCl, 1% ethylene glycol, 2 mM β-mercaptoethanol.
A PI3K Alphascreen® assay (PerkinElmer, Waltham, Mass.) was used to measure the activity of a panel of four phosphoinositide 3-kinases: PI3Kα, PI3Kβ, PI3Kγ, and PI3Kδ. Enzyme reaction buffer was prepared using sterile water (Baxter, Deerfield, Ill.) and 50 mM Tris HCl pH 7, 14 mM MgCl2, 2 mM sodium cholate, and 100 mM NaCl. 2 mM DTT was added fresh the day of the experiment. The Alphascreen buffer was made using sterile water and 10 mM Tris HCl pH 7.5, 150 mM NaCl, 0.10% Tween 20, and 30 mM EDTA. 1 mM DTT was added fresh the day of the experiment. Compound source plates used for this assay were 384-well Greiner clear polypropylene plates containing test compounds at 5 mM and diluted 1:2 over 22 concentrations. Columns 23 and 24 contained only DMSO as these wells comprised the positive and negative controls, respectively. Source plates were replicated by transferring 0.5 uL per well into 384-well Optiplates (PerkinElmer, Waltham, Mass.).
Each PI3K isoform was diluted in enzyme reaction buffer to 2× working stocks. […] PI(4,5)P2 (Echelon Biosciences, Salt Lake City, Utah) was diluted to 10 μM and ATP was diluted to 20 μM. This 2× stock was used in the assays for PI3Kα and PI3Kβ. For assay of PI3Kγ and PI3Kδ, PI(4,5)P2 was diluted to 10 μM and ATP was diluted to 8 μM to prepare a similar 2× working stock. Alphascreen reaction solutions were made using beads from the anti-GST Alphascreen kit (PerkinElmer, Waltham, Mass.). Two 4× working stocks of the Alphascreen reagents were made in Alphascreen reaction buffer. In one stock, biotinylated-IP4 (Echelon Biosciences, Salt Lake City, Utah) was diluted to 40 nM and streptavidin-donor beads were diluted to 80 μg/mL. In the second stock, PIP3-binding protein (Echelon Biosciences, Salt Lake City, Utah) was diluted to 40 nM and anti-GST-acceptor beads were diluted to 80 μg/mL.
10 μL/well of the appropriate substrate 2× stock (containing 20 μM ATP for the PI3Kα and β assays and containing 8 μM ATP for the PI3Kγ and δ assays) was then added to Columns 1-24 of all plates. Plates were then incubated at room temperature for 20 minutes. In the dark, 10 μL/well of the donor bead solution was added to columns 1-24 of the plates to quench the enzyme reaction. The plates were incubated at room temperature for 30 minutes. Still in the dark, 10 μL/well of the acceptor bead solution was added to columns 1-24 of the plates. The plates were then incubated in the dark for 1.5 hours. The plates were read on an Envision multimode Plate Reader (PerkinElmer, Waltham, Mass.) using a 680 nm excitation filter and a 520-620 nm emission filter.

T1 sequence (O00329 whole entry): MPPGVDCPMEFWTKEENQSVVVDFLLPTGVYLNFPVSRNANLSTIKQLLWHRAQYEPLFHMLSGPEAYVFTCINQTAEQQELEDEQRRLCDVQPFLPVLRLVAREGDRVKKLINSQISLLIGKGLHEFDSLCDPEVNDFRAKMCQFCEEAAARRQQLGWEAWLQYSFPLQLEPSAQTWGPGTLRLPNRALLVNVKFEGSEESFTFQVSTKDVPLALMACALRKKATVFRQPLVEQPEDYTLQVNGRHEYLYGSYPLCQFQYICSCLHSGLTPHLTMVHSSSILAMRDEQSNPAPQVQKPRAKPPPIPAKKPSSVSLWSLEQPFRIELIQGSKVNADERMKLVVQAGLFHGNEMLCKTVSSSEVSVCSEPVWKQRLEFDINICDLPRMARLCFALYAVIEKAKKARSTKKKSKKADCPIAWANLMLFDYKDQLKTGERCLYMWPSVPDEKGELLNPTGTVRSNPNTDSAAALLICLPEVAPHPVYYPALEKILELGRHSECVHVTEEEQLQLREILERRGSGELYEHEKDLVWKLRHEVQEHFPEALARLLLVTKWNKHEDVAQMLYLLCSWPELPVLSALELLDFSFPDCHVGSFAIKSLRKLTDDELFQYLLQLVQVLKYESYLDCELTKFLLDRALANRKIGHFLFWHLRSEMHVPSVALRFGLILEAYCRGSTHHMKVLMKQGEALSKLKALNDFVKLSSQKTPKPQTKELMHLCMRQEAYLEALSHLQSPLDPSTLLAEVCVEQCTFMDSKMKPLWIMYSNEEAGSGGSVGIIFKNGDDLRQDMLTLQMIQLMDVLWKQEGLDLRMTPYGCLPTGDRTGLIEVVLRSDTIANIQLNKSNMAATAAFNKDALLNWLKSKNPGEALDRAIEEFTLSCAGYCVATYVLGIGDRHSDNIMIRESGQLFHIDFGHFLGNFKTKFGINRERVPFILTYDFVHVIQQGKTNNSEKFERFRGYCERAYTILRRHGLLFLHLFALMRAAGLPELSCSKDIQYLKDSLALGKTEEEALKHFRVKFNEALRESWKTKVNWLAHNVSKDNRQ
T1 sequence (P27986 whole entry partner): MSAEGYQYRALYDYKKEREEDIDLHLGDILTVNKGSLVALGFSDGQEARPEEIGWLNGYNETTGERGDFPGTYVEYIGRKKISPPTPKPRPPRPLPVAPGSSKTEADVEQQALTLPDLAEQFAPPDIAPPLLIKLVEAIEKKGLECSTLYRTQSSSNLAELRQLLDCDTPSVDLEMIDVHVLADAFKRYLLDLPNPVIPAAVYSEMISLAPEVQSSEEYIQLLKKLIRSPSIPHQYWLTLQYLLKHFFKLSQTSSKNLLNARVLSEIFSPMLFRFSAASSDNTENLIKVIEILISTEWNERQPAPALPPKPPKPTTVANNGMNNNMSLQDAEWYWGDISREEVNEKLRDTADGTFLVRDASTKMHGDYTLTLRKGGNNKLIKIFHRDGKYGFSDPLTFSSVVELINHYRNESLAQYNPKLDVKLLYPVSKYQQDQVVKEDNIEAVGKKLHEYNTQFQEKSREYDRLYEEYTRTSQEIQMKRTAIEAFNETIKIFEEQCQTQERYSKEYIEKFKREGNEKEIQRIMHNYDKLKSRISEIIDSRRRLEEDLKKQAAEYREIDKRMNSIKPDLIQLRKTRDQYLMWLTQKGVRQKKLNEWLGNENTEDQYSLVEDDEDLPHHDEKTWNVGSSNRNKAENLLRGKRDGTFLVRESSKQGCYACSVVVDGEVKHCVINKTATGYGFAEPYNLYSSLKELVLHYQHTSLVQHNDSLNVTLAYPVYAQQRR

SMILES	Ki
CC(Nc1ncnc(N)c1C#N)c1nc2ccc(F)cc2c(N2CC(O)C2)c1-c1ccccn1 (centres unmarked) [4-Amino-6-(1-(6-fluoro-4-(3-hydroxyazetidin-1-yl)-3-(pyridin-2-yl)quinolin-2-yl)ethylamino)pyrimidine-5-carbonitrile]	1.78 nM
COCCNc1c(-c2ccccc2)c(C(C)Nc2ncnc(N)c2C#N)nc2ccc(F)cc12 (centres unmarked) [4-Amino-6-(1-(6-fluoro-4-((2-methoxyethyl)amino)-3-phenyl-2-quinolinyl)-ethyl)amino)-5-pyrimidinecarbonitrile]	1.35 nM
CC(Nc1ncnc(N)c1C#N)c1nc2ccc(F)cc2c(CS(C)(=O)=O)c1-c1ccccc1 (centres unmarked) [4-Amino-6-(1-(6-fluoro-4-(methylsulfonylmethyl)-3-phenylquinolin-2-yl)-ethylamino)pyrimidine-5-carbonitrile]	1.38 nM
CC(Nc1ncnc(N)c1C#N)c1nc2ccc(F)cc2c(C(=O)N2CCCC2)c1-c1ccccc1 (centres unmarked) [4-Amino-6-((1-(6-fluoro-3-phenyl-4-(1-pyrrolidinylcarbonyl)-2-quinolinyl)-ethyl)amino)-5-pyrimidinecarbonitrile]	7.06 nM
CC(Nc1ncnc(N)c1C#N)c1nc2ccc(F)cc2c(NCCS(C)(=O)=O)c1-c1ccccc1 (centres unmarked) [4-Amino-6-((1-(6-fluoro-4-((2-(methylsulfonyl)ethyl)amino)-3-phenyl-2-quinolinyl)ethyl)amino)-5-pyrimidinecarbonitrile]	0.463 nM
CC(Nc1ncnc(N)c1C#N)c1nc2ccc(F)cc2c(NCCO)c1-c1ccccc1 (centres unmarked) [4-Amino-6-((1-(6-fluoro-4-((2-hydroxyethyl)amino)-3-phenyl-2-quinolinyl)ethyl)amino)-5-pyrimidinecarbonitrile]	0.396 nM
COC1CN(C(=O)c2c(-c3ccccc3)c(C(C)Nc3ncnc(N)c3C#N)nc3ccc(F)cc23)C1 (centres unmarked) [4-Amino-6-((1-(6-fluoro-4-((3-methoxy-1-azetidinyl)carbonyl)-3-phenyl-2-quinolinyl)ethyl)amino)-5-pyrimidinecarbonitrile]	1.75 nM
CC(Nc1ncnc(N)c1C#N)c1nc2ccc(F)cc2c(C(=O)N2CCN(C)CC2)c1-c1ccccc1 (centres unmarked) [4-Amino-6-((1-(6-fluoro-4-((4-methyl-1-piperazinyl)carbonyl)-3-phenyl-2-quinolinyl)ethyl)amino)-5-pyrimidinecarbonitrile]	1.32 nM
CC(Nc1ncnc(N)c1C#N)c1nc2ccc(F)cc2c(C(=O)N2CC[C@@H](O)C2)c1-c1ccccc1 (stereo partly drawn) [4-Amino-6-((1-(6-fluoro-4-(((3R)-3-hydroxy-1-pyrrolidinyl)carbonyl)-3-phenyl-2-quinolinyl)ethyl)amino)-5-pyrimidinecarbonitrile]	25.6 nM
N#Cc1c(N)ncnc1NCc1nc2cccc(F)c2cc1-c1cc(F)cc(F)c1 [4-Amino-6-((3-(3,5-difluorophenyl)-5-fluoroquinolin-2-yl)methylamino)pyrimidine-5-carbonitrile]	246 nM
CS(=O)(=O)c1ccccc1-c1cc2c(F)cccc2nc1CNc1ncnc(N)c1C#N [4-Amino-6-((5-fluoro-3-(2-(methylsulfonyl)phenyl)quinolin-2-yl)methylamino)pyrimidine-5-carbonitrile]	39 nM
N#Cc1c(N)ncnc1NCc1nc2cccc(F)c2cc1-c1cccc(F)c1 [4-Amino-6-((5-fluoro-3-(3-fluorophenyl)quinolin-2-yl)methylamino)pyrimidine-5-carbonitrile]	102 nM
N#Cc1c(N)ncnc1NCc1nc2cccc(F)c2cc1-c1ccccn1 [4-Amino-6-((5-fluoro-3-(pyridin-2-yl)quinolin-2-yl)methylamino)pyrimidine-5-carbonitrile]	137 nM
N#Cc1c(N)ncnc1NCc1nc2cccc(F)c2cc1-c1ccccc1 [4-Amino-6-((5-fluoro-3-phenylquinolin-2-yl)methylamino)pyrimidine-5-carbonitrile]	107 nM
CS(=O)(=O)c1ccccc1-c1cc2cccc(F)c2nc1CNc1ncnc(N)c1C#N [4-Amino-6-((8-fluoro-3-(2-(methylsulfonyl)phenyl)quinolin-2-yl)methylamino)-pyrimidine-5-carbonitrile]	30.7 nM
N#Cc1c(N)ncnc1NCc1nc2c(F)cccc2cc1-c1ccccn1 [4-Amino-6-((8-fluoro-3-(pyridin-2-yl)quinolin-2-yl)methyl-amino)pyrimidine-5-carbonitrile]	262 nM
N#Cc1c(N)ncnc1NCc1nc2c(F)cccc2cc1-c1ccccc1 [4-Amino-6-((8-fluoro-3-phenylquinolin-2-yl)methylamino)pyrimidine-5-carbonitrile]	12.3 nM
COCCNc1c(-c2ccccc2)c([C@@H](C)Nc2ncnc(N)c2C#N)nc2ccc(F)cc12 [4-Amino-6-(((1R)-1-(6-fluoro-4-((2-methoxyethyl)amino)-3-phenyl-2-quinolinyl)ethyl)amino)-5-pyrimidinecarbonitrile]	62.2 nM
C[C@H](Nc1ncnc(N)c1C#N)c1nc2cccc(Cl)c2cc1-c1ccccn1 [4-Amino-6-(((1S)-1-(5-chloro-3-(2-pyridinyl)-2-quinolinyl)ethyl)amino)-5-pyrimidinecarbonitrile]	0.4 nM
C[C@H](Nc1ncnc(N)c1C#N)c1nc2ccc(F)cc2c(NCCS(C)(=O)=O)c1-c1ccccc1 [4-Amino-6-(((1S)-1-(6-fluoro-4-((2-(methylsulfonyl)ethyl)amino)-3-phenyl-2-quinolinyl)ethyl)amino)-5-pyrimidinecarbonitrile]	0.226 nM
COCCNc1c(-c2ccccc2)c([C@H](C)Nc2ncnc(N)c2C#N)nc2ccc(F)cc12 [4-Amino-6-(((1S)-1-(6-fluoro-4-((2-methoxyethyl)amino)-3-phenyl-2-quinolinyl)ethyl)amino)-5-pyrimidinecarbonitrile]	0.61 nM
CC(Nc1ncnc(N)c1C#N)c1nc2ccc(F)cc2c(C(=O)N2CCOCC2)c1-c1ccccc1 (centres unmarked) [4-Amino-6-((-1-(6-fluoro-4-(4-morpholinylcarbonyl)-3-phenyl-2-quinolinyl)-ethyl)amino)-5-pyrimidinecarbonitrile]	2.88 nM
CC(Nc1ncnc(N)c1C#N)c1nc2ccc(F)cc2c(C(=O)N2CC[C@H](O)C2)c1-c1ccccc1 (stereo partly drawn) [4-Amino-6-((-1-(6-fluoro-4-(((3S)-3-hydroxy-1-pyrrolidinyl)carbonyl)-3-phenyl-2-quinolinyl)ethyl)amino)-5-pyrimidinecarbonitrile]	1.02 nM
C[C@H](c1nc2ccc(F)cc2cc1-c1cncc(F)c1)n1nc(C#N)c2c(N)ncnc21 [4-amino-1-((R)-1-(6-fluoro-3-(5-fluoropyridin-3-yl)quinolin-2-yl)ethyl)-1H-pyrazolo[3,4-d]pyrimidine-3-carbonitrile]	5470 nM
CC(Nc1ncnc(N)c1C#N)c1nc2ccc(F)cc2c(N(C)C)c1-c1ccccn1 (centres unmarked) [4-amino-6-(1-(4-(dimethylamino)-6-fluoro-3-(pyridin-2-yl)quinolin-2-yl)ethylamino)pyrimidine-5-carbonitrile]	1.4 nM
CC(Nc1ncnc(N)c1C#N)c1nc2ccc(F)cc2c([S@@+]([O-])CCO)c1-c1ccccc1 (stereo partly drawn) [4-amino-6-(1-(6-fluoro-4-((S)-2-hydroxyethylsulfinyl)-3-phenylquinolin-2-yl)ethylamino)pyrimidine-5-carbonitrile]	1.8 nM
CC(Nc1ncnc(N)c1C#N)c1nc2ccc(F)cc2c(CO)c1-c1ccccc1 (centres unmarked) [4-amino-6-(1-(6-fluoro-4-(hydroxymethyl)-3-phenylquinolin-2-yl)ethylamino)pyrimidine-5-carbonitrile]	1.68 nM
CC(Nc1ncnc(N)c1C#N)c1nc2ccc(F)cc2c(S(C)(=O)=O)c1-c1ccccc1 (centres unmarked) [4-amino-6-(1-(6-fluoro-4-(methylsulfonyl)-3-phenylquinolin-2-yl)ethylamino)pyrimidine-5-carbonitrile]	1.3 nM

Same assay, conditions: listed as 4-amino-6-(-1-(6-fluoro-4-(((3R)-3-hydroxy-1-pyrrolidinyl)-carbonyl)-3-phenyl-2))

SMILES	Ki
CC(Nc1ncnc(N)c1C#N)c1nc2ccc(F)cc2c(C(=O)N2CC[C@@H](O)C2)c1-c1ccccc1 (stereo partly drawn) [4-Amino-6-((1-(6-fluoro-4-(((3R)-3-hydroxy-1-pyrrolidinyl)carbonyl)-3-phenyl-2-quinolinyl)ethyl)amino)-5-pyrimidinecarbonitrile]	5.07 nM

Reference: patent publication US9873704B2, “Heterocyclic compounds and their uses” (Amgen Inc., priority 2009, dated 2018)
